Like-named read-outs stand apart in the source and are kept apart here.
What was measured:
[1] = tested on: A/PR/8/34 influenza virus; assay: microbe, parasite or virus in culture; assay type: cell-based; settings: read-out: EC50 (mean all)
[2] = tested on: influenza A virus (A/PR/8/34); assay: microbe, parasite or virus in culture; assay type: cell-based; settings: read-out: IC50 (mean all)
[3] = Influenza A virus, PR/8, MDCK, MDCK cells infected with A/PR/8/34, bDNA viral RNA
[4] = Influenza A virus, PR/8, MDCK, MDCK cells infected with A/PR/8/34, cell protection (CPE)

**Q.** With `O=C(c1cc(F)cc2c1OCOC2)N1CCC[C@H](CNc2nc(-c3c[nH]c4ncc(Cl)cc34)ncc2F)C1` [Compound 142, (R)-(3-((2-(5-chloro-1H-pyrrolo[2,3-b]pyridin-3-yl)-5-fluoropyrimidin-4-ylamino)methyl)piperidin-1-yl)(6-fluoro-4H-benzo[d][1,3]dioxin-8-yl)methanone] as the molecule, how does the EC50 [1, 3] read?
**A.** < 5 µM

**Q.** What about the IC50 [2, 4] of the same molecule?
**A.** < 5 µM

**Q.** With `Cc1ccccc1C(=O)N1CCC[C@H](CNc2nc(-c3c[nH]c4ncc(Cl)cc34)ncc2F)C1` [Compound 143, (R)-(3-((2-(5-chloro-1H-pyrrolo[2,3-b]pyridin-3-yl)-5-fluoropyrimidin-4-ylamino)methyl)piperidin-1-yl)(o-tolyl)methanone] as the molecule, how does the EC50 [1, 3] read?
**A.** < 5 µM

**Q.** What about the IC50 [2, 4] of the same molecule?
**A.** < 5 µM

**Q.** With `O=C(c1ccc2c(c1)OCC2)N1CCC[C@H](CNc2nc(-c3c[nH]c4ncc(Cl)cc34)ncc2F)C1` [Compound 145, (R)-(3-((2-(5-chloro-1H-pyrrolo[2,3-b]pyridin-3-yl)-5-fluoropyrimidin-4-ylamino)methyl)piperidin-1-yl)(2,3-dihydrobenzofuran-6-yl)methanone] as the molecule, how does the EC50 [1, 3] read?
**A.** < 5 µM

**Q.** And the IC50 [2, 4]?
**A.** < 5 µM

**Q.** `O=C(c1ccccc1C(F)(F)F)N1CCC[C@H](CNc2nc(-c3c[nH]c4ncc(Cl)cc34)ncc2F)C1` [Compound 146, (R)-(3-((2-(5-chloro-1H-pyrrolo[2,3-b]pyridin-3-yl)-5-fluoropyrimidin-4-ylamino)methyl)piperidin-1-yl)(2-(trifluoromethyl)phenyl)methanone] was tested. Which EC50 [1, 3] did it give?
**A.** < 5 µM

**Q.** What about the IC50 [2, 4] of the same molecule?
**A.** < 5 µM

**Q.** Which results are given for `O=C(c1ccc(Cl)cc1Cl)N1CCC[C@H](CNc2nc(-c3c[nH]c4ncc(Cl)cc34)ncc2F)C1` [Compound 147, (R)-(3-((2-(5-chloro-1H-pyrrolo[2,3-b]pyridin-3-yl)-5-fluoropyrimidin-4-ylamino)methyl)piperidin-1-yl)(2,4-dichlorophenyl)methanone]?
**A.** EC50 [1, 3]: < 5 µM; IC50 [2, 4]: < 5 µM

**Q.** `COc1c(C)cccc1C(=O)N1CCC[C@H](CNc2nc(-c3c[nH]c4ncc(Cl)cc34)ncc2F)C1` [Compound 148, (R)-(3-((2-(5-chloro-1H-pyrrolo[2,3-b]pyridin-3-yl)-5-fluoropyrimidin-4-ylamino)methyl)piperidin-1-yl)(2-methoxy-3-methylphenyl)methanone] was tested. Which EC50 [1, 3] did it give?
**A.** < 5 µM

**Q.** And the IC50 [2, 4]?
**A.** < 5 µM

**Q.** What does the source list for `O=C(c1cc(F)ccc1F)N1CCC[C@H](CNc2nc(-c3c[nH]c4ncc(Cl)cc34)ncc2F)C1` [Compound 151]?
**A.** EC50 [1, 3]: < 5 µM; IC50 [2, 4]: < 5 µM

**Q.** Which results are given for `O=C(c1ccc(F)cc1F)N1CCC[C@H](CNc2nc(-c3c[nH]c4ncc(Cl)cc34)ncc2F)C1` [Compound 152, (R)-(3-((2-(5-chloro-1H-pyrrolo[2,3-b]pyridin-3-yl)-5-fluoropyrimidin-4-ylamino)methyl)piperidin-1-yl)(2,4-difluorophenyl)methanone]?
**A.** EC50 [1, 3]: < 5 µM; IC50 [2, 4]: < 5 µM

**Q.** `COc1ccc(C(=O)N2CCC[C@H](CNc3nc(-c4c[nH]c5ncc(Cl)cc45)ncc3F)C2)c(OC)c1` [Compound 154, (R)-(3-((2-(5-chloro-1H-pyrrolo[2,3-b]pyridin-3-yl)-5-fluoropyrimidin-4-ylamino)methyl)piperidin-1-yl)(2,4-dimethoxyphenyl)methanone] was tested. Which EC50 [1, 3] did it give?
**A.** < 5 µM

**Q.** And the IC50 [2, 4]?
**A.** 5 to 20 µM

**Q.** With `Cc1cccc(C(=O)N2CCC[C@H](CNc3nc(-c4c[nH]c5ncc(Cl)cc45)ncc3F)C2)c1C` [Compound 157, (R)-(3-((2-(5-chloro-1H-pyrrolo[2,3-b]pyridin-3-yl)-5-fluoropyrimidin-4-ylamino)methyl)piperidin-1-yl)(2,3-dimethylphenyl)methanone] as the molecule, how does the EC50 [1, 3] read?
**A.** < 5 µM

**Q.** What about the IC50 [2, 4] of the same molecule?
**A.** < 5 µM

**Q.** Which results are given for `COCCOC(=O)N1CCCC[C@H]1CNc1nc(-c2c[nH]c3ncc(Cl)cc23)ncc1F` [Compound 161, (S)-2-methoxyethyl 2-((2-(5-chloro-1H-pyrrolo[2,3-b]pyridin-3-yl)-5-fluoropyrimidin-4-ylamino)methyl)piperidine-1-carboxylate]?
**A.** EC50 [1, 3]: < 5 µM; IC50 [2, 4]: > 20 µM

**Q.** `O=C(OCCCl)N1CCCC[C@H]1CNc1nc(-c2c[nH]c3ncc(Cl)cc23)ncc1F` [Compound 163, (S)-2-chloroethyl 2-((2-(5-chloro-1H-pyrrolo[2,3-b]pyridin-3-yl)-5-fluoropyrimidin-4-ylamino)methyl)piperidine-1-carboxylate] was tested. Which EC50 [1, 3] did it give?
**A.** < 5 µM

**Q.** And the IC50 [2, 4]?
**A.** 5 to 20 µM

**Q.** `C#CCOC(=O)N1CCCC[C@H]1CNc1nc(-c2c[nH]c3ncc(Cl)cc23)ncc1F` [Compound 164, (S)-prop-2-ynyl 2-((2-(5-chloro-1H-pyrrolo[2,3-b]pyridin-3-yl)-5-fluoropyrimidin-4-ylamino)methyl)piperidine-1-carboxylate] was tested. Which EC50 [1, 3] did it give?
**A.** < 5 µM

**Q.** What about the IC50 [2, 4] of the same molecule?
**A.** > 20 µM

**Q.** With `COC(=O)N1CCCC[C@H]1CNc1nc(-c2c[nH]c3ncc(Cl)cc23)ncc1F` [Compound 166, (S)-methyl 2-((2-(5-chloro-1H-pyrrolo[2,3-b]pyridin-3-yl)-5-fluoropyrimidin-4-ylamino)methyl)piperidine-1-carboxylate] as the molecule, how does the EC50 [1, 3] read?
**A.** < 5 µM

**Q.** What about the IC50 [2, 4] of the same molecule?
**A.** 5 to 20 µM

**Q.** Which results are given for `CCOC(=O)N1CCCC[C@H]1CNc1nc(-c2c[nH]c3ncc(Cl)cc23)ncc1F` [Compound 171, (S)-ethyl 2-((2-(5-chloro-1H-pyrrolo[2,3-b]pyridin-3-yl)-5-fluoropyrimidin-4-ylamino)methyl)piperidine-1-carboxylate]?
**A.** EC50 [1, 3]: 5 to 10 µM; IC50 [2, 4]: > 20 µM

**Q.** What does the source list for `CC(=O)N1CCCC[C@@H]1CNc1nc(-c2c[nH]c3ncc(Cl)cc23)ncc1F` [Compound 179, (R)-1-(2-((2-(5-chloro-1H-pyrrolo[2,3-b]pyridin-3-yl)-5-fluoropyrimidin-4-ylamino)methyl)piperidin-1-yl)ethanone]?
**A.** EC50 [1, 3]: < 5 µM; IC50 [2, 4]: < 5 µM

**Q.** For `O=C(OCCF)N1CCCC[C@@H]1CNc1nc(-c2c[nH]c3ncc(Cl)cc23)ncc1F` [Compound 180, (R)-2-fluoroethyl 2-((2-(5-chloro-1H-pyrrolo[2,3-b]pyridin-3-yl)-5-fluoropyrimidin-4-ylamino)methyl)piperidine-1-carboxylate], which EC50 [1, 3] is on record?
**A.** < 5 µM

**Q.** And the IC50 [2, 4]?
**A.** < 5 µM

**Q.** Which results are given for `O=C(c1nccs1)N1CCCC(CNc2nc(-c3c[nH]c4ncc(Cl)cc34)ncc2F)C1` (centres unmarked) [Compound 186]?
**A.** EC50 [1, 3]: < 5 µM; IC50 [2, 4]: < 5 µM

**Q.** Which EC50 [1] does the source give for `CCCNC(=O)N1CCCC(Nc2nc(-c3c[nH]c4ncc(Cl)cc34)ncc2F)C1` (centres unmarked) [Compound 196] here?
**A.** < 5 µM

**Q.** What about the IC50 [2] of the same molecule?
**A.** < 5 µM

**Q.** `CCC(=O)N1CCCC[C@@H]1CNc1nc(-c2c[nH]c3ncc(Cl)cc23)ncc1F` [Compound 208, (R)-1-(2-((2-(5-chloro-1H-pyrrolo[2,3-b]pyridin-3-yl)-5-fluoropyrimidin-4-ylamino)methyl)piperidin-1-yl)propan-1-one] was tested. Which EC50 [1, 3] did it give?
**A.** < 5 µM

**Q.** What about the IC50 [2, 4] of the same molecule?
**A.** < 5 µM

**Q.** How did the EC50 [1, 3] turn out when `O=C(c1ccc(F)cc1)N1CCCC[C@@H]1CNc1nc(-c2c[nH]c3ncc(Cl)cc23)ncc1F` [Compound 209, (R)-(2-((2-(5-chloro-1H-pyrrolo[2,3-b]pyridin-3-yl)-5-fluoropyrimidin-4-ylamino)methyl)piperidin-1-yl)(4-fluorophenyl)methanone] was run?
**A.** < 5 µM

**Q.** What about the IC50 [2, 4] of the same molecule?
**A.** < 5 µM

**Q.** For `O=C(c1cccc(C(F)(F)F)c1)N1CCCC[C@@H]1CNc1nc(-c2c[nH]c3ncc(Cl)cc23)ncc1F` [Compound 210, (R)-(2-((2-(5-chloro-1H-pyrrolo[2,3-b]pyridin-3-yl)-5-fluoropyrimidin-4-ylamino)methyl)piperidin-1-yl)(3-(trifluoromethyl)phenyl)methanone], which EC50 [1, 3] is on record?
**A.** 5 to 10 µM

**Q.** What about the IC50 [2, 4] of the same molecule?
**A.** > 20 µM

— patent publication US8829007B2 (priority 2009, dated 2014)
